According to US6498275B1, “Use of compounds for the elevation of pyruvate dehydrogenase activity” (AstraZeneca AB, priority 1998, dated 2002):

How the values were obtained:
PDH = conditions: cited from earlier work
[1] = cited from earlier work

melting point | Structure (SMILES) | also measured
91 to 92.5 °C | CC(C)(O)C(=O)Nc1ccc(Sc2ccccc2)cc1F | 
68 to 70 °C | C[C@@](O)(C(=O)Nc1ccc(S(=O)(=O)c2ccccc2NCCO)cc1Cl)C(F)(F)F | 

Continued, compound first:

Structure (SMILES) | melting point | also measured
O=C(O)C(Cl)Cl [DCA, dichloroacetic acid] |  | activity of PDH (PDH; after acute administration in animals (Vary et al. 1988)): increases the activity of PDH; proportion of PDH in its active form (PDH; single administration, 150 mg/kg, intraperitoneally (Vary et al. 1988)): increased the proportion of PDH in its active form; glycaemia ([1]; Stacpoole et al. 1978): reducing glycaemia; plasma glucose ([1]; after repeated administration (Evans and Stacpoole 1982)): significant decrease in plasma glucose
C[S+]([O-])c1ccccc1S(=O)(=O)c1ccc(NC(=O)[C@@](C)(O)C(F)(F)F)c(Cl)c1 (stereo partly shown) | 118 to 120 °C | 
CC(C)(O)C(=O)Nc1ccc(S(=O)(=O)c2ccccc2)cc1F | 155.5 to 156.5 °C | 
CC(=O)Nc1cc(S(=O)(=O)c2ccccc2)ccc1NC(=O)C(C)(O)C(F)(F)F (stereo not shown) | 205 to 207 °C | 
CC(C)(O)C(=O)Nc1ccc(Sc2ccc(NS(C)(=O)=O)cc2)cc1Cl | 138 to 140 °C | 
